Measurements published in article PMC6397271 (Scientific Reports, 2019).
Like-named read-outs stand apart in the source and are kept apart here.

What was measured:
Assay in all cases: microbe, parasite or virus in culture
S. aureus MRSA 12673 = format: cell-based, Staphylococcus aureus; details: for MIC: raw MIC
Excerpt: (§1) Three bacterial strains of MRSA (N315, 12673, 6347) and two of Enterococcus spp. (E. faecium, E. faecalis) were used. With respect to MRSA, N315 represented a reference Van-susceptible strain (GenBank GCA_00000645.1) isolated from a patient while 12673 (Van-intermediately susceptible) and 6347 (a h-VISA which appears at frequency of <10^−5 to 10^−6 is composed of two subpopulations of bacteria: one susceptible and one intermediately resistant)[38] were clinical strains obtained from patients of The Clinical University Centre of Gdańsk (UCK). […] The clinical strain isolates originated from the collection of the Department of Pharmaceutical Technology and Biochemistry, Faculty of Chemistry, Gdańsk University of Technology.
(§2) The strains were grown in Mueller-Hinton broth (MH cation-adjusted, Becton Dickinson) or Brain Heart Infusion broth (BHI, Becton Dickinson), respectively. The cultivation was carried out in an aerobic atmosphere at 37 °C for 24 hours and, afterwards, the bacterial cultures were diluted in geometric progression with a proper broth. Next, 100 µl of each dilution was inoculated in an agar plate and incubated at 37 °C for 24 h. The next procedures included determination of Colony Forming Units (CFU)/ml and minimal inhibitory concentration (MIC) of the compounds in question. The latter procedure was carried out according to the microbroth dilution technique using 96-well plates. The MICs were evaluated by using the metabolic assay based on the resazurin dye. The assay was performed in triplicates.

S. aureus MRSA N315 = format: cell-based, Staphylococcus aureus; details: for MIC: raw MIC
Excerpt: as §1, §2

[1] = test system: S. aureus MRSA hetero-VISA 6347; format: cell-based, Staphylococcus aureus; details: for MIC: raw MIC
Excerpt: as §1, §2

[2] = test system: Enterococcus faecalis 3937158; format: cell-based
Excerpt: as §1, §2

[3] = test system: Enterococcus faecium 3934825; format: cell-based; details: for MIC: raw MIC
Excerpt: as §1, §2

[4] = first block, test a, repetition 1, read-out: MIC1a
[5] = first block, test a, repetition 2, read-out: MIC2a
[6] = first block, test a, repetition 3, read-out: MIC3a
[7] = first block, test b, repetition 1, read-out: MIC1b
[8] = first block, test b, repetition 2, read-out: MIC2b
[9] = first block, test b, repetition 3, read-out: MIC3b
[10] = test a, repetition 1, read-out: MIC1a
[11] = test a, repetition 2, read-out: MIC2a
[12] = test a, repetition 3, read-out: MIC3a
[13] = test b, repetition 1, read-out: MIC1b
[14] = test b, repetition 2, read-out: MIC2b
[15] = test b, repetition 3, read-out: MIC3b
[16] = same test as μM value, mean ± SD

CC[C@H](C)[C@H](NC(=O)[C@H](CCCCN)NC(=O)[C@H](CCCCN)NC(=O)[C@H](C)NC(=O)[C@H](CC(C)C)NC(=O)[C@H](C)NC(=O)[C@H](C)NC(=O)[C@H](CC(C)C)NC(=O)[C@H](C)NC(=O)[C@H](CCCCN)NC(=O)[C@H](CC(C)C)NC(=O)[C@H](CC(N)=O)NC(=O)[C@@H](NC(=O)[C@H](CCCCN)NC(=O)CNC(=O)[C@H](CC(C)C)NC(=O)[C@H](CC(C)C)NC(=O)[C@H](Cc1ccc(O)cc1)NC(=O)CNC(=O)[C@H](C)N)[C@@H](C)CC)C(=O)N[C@@H](CC(C)C)C(=O)N[C@@H](Cc1cn(CCOCCOCCOCCOCCC(=O)N[C@@]2(C)C[C@H](O[C@H]3[C@H](Oc4c5cc6cc4Oc4ccc(cc4Cl)[C@@H](O)[C@@H](NC(=O)[C@@H](CC(C)C)NC)C(=O)N[C@@H](CC(N)=O)C(=O)N[C@H]6C(=O)N[C@H]4C(=O)N[C@H](C(=O)N[C@H](C(=O)O)c6cc(O)cc(O)c6-c6cc4ccc6O)[C@H](O)c4ccc(c(Cl)c4)O5)O[C@H](CO)[C@@H](O)[C@@H]3O)O[C@@H](C)[C@H]2O)nn1)C(N)=O [conjugate III, TP10-Ala(PEG4-Van)]
6.24 µM: MIC (S. aureus MRSA 12673; [11]) | MIC (S. aureus MRSA 12673; [14])
50.0 ± 12.9 µg/mL: MIC in (μg/ml) (S. aureus MRSA N315; [16]) | MIC in (μg/ml) [3, 16]
100.0 ± 20.4 µg/mL: MIC in (μg/ml) [2, 16]
1.6 µM: MIC [1, 4] | MIC [1, 7] | MIC [1, 8] | MIC [1, 9]
6.4 µM: MIC [1, 10] | MIC [1, 13] | MIC [1, 14] | MIC [1, 15]
6.25 µM: MIC (S. aureus MRSA N315; [5]) | MIC (S. aureus MRSA N315; [9]) | MIC [3, 5] | MIC [3, 7]
100.02 µM: MIC ([2]; raw MIC, test a, repetition 1, read-out: MIC1a) | MIC ([2]; raw MIC, test a, repetition 2, read-out: MIC2a) | MIC ([2]; raw MIC, test a, repetition 3, read-out: MIC3a) | MIC ([2]; raw MIC, test b, repetition 2, read-out: MIC2b) | MIC ([2]; raw MIC, test b, repetition 3, read-out: MIC3b)
12.5 µM: MIC (S. aureus MRSA N315; [4]) | MIC (S. aureus MRSA N315; [6]) | MIC (S. aureus MRSA N315; [7]) | MIC (S. aureus MRSA N315; [8]) | MIC ([2]; raw MIC, first block, test b, repetition 1, read-out: MIC1b) | MIC [3, 4] | MIC [3, 6] | MIC [3, 8] | MIC [3, 9]
3.1 ± 1.6 µg/mL: MIC in (μg/ml) (S. aureus MRSA 12673; [16])
25 µM: MIC ([2]; raw MIC, first block, test a, repetition 1, read-out: MIC1a) | MIC ([2]; raw MIC, first block, test a, repetition 2, read-out: MIC2a) | MIC ([2]; raw MIC, first block, test a, repetition 3, read-out: MIC3a) | MIC ([2]; raw MIC, first block, test b, repetition 2, read-out: MIC2b) | MIC ([2]; raw MIC, first block, test b, repetition 3, read-out: MIC3b)
6.4 ± 1.7 µg/mL: MIC in (μg/ml) [1, 16]
50.01 µM: MIC (S. aureus MRSA N315; [10]) | MIC (S. aureus MRSA N315; [12]) | MIC (S. aureus MRSA N315; [13]) | MIC (S. aureus MRSA N315; [14]) | MIC ([2]; raw MIC, test b, repetition 1, read-out: MIC1b) | MIC [3, 10] | MIC [3, 12] | MIC [3, 14] | MIC [3, 15]
3.12 µM: MIC (S. aureus MRSA 12673; [10]) | MIC (S. aureus MRSA 12673; [12]) | MIC (S. aureus MRSA 12673; [13]) | MIC (S. aureus MRSA 12673; [15])
3.2 µM: MIC [1, 11] | MIC [1, 12]
0.78 µM: MIC (S. aureus MRSA 12673; [4]) | MIC (S. aureus MRSA 12673; [6]) | MIC (S. aureus MRSA 12673; [7]) | MIC (S. aureus MRSA 12673; [9]) | MIC [1, 5] | MIC [1, 6]
25.01 µM: MIC (S. aureus MRSA N315; [11]) | MIC (S. aureus MRSA N315; [15]) | MIC [3, 11] | MIC [3, 13]
1.56 µM: MIC (S. aureus MRSA 12673; [5]) | MIC (S. aureus MRSA 12673; [8])
25.0 ± 5.1 µM: MIC ([2]; microbroth dilution, 96-well, resazurin, 37 °C, 24 h, mean ± SD, at least three independent experiments in triplicates)
